From patent US9550782B2, “Compounds and methods for treating diabetes” (Medivation Technologies, Inc., priority 2011, dated 2017)
Read-outs that look alike come from different tables or passages of the source. One block for each compound: values may come before it.

Assays:
[1] = molecular target: T1, human recombinant adrenergic α2B receptor (Homo sapiens, UniProt P18089); experiment: Radioligand binding, adrenergic α2B ([3H]Rauwolscine); details: for Percentage inhibition of ligand binding, Adrenergic α2B (0.1 μM): repeat datapoints each shown
T1 construct: expressed in transfected cells; host or cells: CHO-K1
T1 sequence (P18089 1-450): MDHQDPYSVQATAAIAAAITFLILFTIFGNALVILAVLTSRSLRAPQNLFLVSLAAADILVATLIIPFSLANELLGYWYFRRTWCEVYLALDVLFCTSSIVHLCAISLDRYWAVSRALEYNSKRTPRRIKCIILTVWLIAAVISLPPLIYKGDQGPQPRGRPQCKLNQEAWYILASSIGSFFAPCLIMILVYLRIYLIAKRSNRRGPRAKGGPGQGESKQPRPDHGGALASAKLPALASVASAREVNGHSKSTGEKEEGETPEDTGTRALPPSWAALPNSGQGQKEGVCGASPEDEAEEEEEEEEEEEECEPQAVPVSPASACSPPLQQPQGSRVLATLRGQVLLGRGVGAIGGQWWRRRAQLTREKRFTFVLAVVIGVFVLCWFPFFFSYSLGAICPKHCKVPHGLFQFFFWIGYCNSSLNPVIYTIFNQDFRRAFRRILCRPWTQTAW
How it was run: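 Readout: percent inhibition of specific [3H]Rauwolscine binding, measured by filtration and counting. Conditions: CHO-K1 cell-expressed receptor, 2.5 nM radioligand, 60 min, 25° C, Tris-HCl pH 7.4 buffer with MgCl2, EDTA, BSA. Non-specific binding: 10 μM Prazosin.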

[2] = molecular target: T2, human recombinant adrenergic α1D receptor (Homo sapiens, UniProt P25100); experiment: Radioligand binding, adrenergic α1D ([3H]Prazosin); details: for Percentage inhibition of ligand binding, Adrenergic α1D (0.1 μM): repeat datapoints each shown
T2 construct: expressed in transfected cells; host or cells: HEK-293
T2 sequence (P25100 1-572): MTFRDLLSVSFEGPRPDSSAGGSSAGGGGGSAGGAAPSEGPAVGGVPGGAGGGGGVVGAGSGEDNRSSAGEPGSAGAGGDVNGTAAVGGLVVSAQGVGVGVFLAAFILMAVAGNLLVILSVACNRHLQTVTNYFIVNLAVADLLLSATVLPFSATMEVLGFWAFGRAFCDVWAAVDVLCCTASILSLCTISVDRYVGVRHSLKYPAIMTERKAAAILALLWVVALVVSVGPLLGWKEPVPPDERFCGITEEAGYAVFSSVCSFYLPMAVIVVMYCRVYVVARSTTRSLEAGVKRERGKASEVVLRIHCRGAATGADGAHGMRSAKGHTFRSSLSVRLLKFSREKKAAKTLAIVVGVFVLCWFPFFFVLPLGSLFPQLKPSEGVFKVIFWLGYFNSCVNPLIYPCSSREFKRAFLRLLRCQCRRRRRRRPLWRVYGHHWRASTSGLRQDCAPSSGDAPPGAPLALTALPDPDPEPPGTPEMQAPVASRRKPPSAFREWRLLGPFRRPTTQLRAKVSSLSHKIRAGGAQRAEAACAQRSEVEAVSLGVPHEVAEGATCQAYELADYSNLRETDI
Description: Compounds were incubated with 0.6 nM [^3H]Prazosin for 60 min at 25° C. Non-specific binding was estimated in the presence of 10 μM phentolamine. Receptor proteins were filtered and washed, the filters were then counted to determine [^3H]Prazosin specifically bound. […] Biochemical assay results are presented as the percent inhibition of specific binding in Table B1.

[3] = molecular target: T3, human recombinant adrenergic α2A receptor (Homo sapiens, UniProt P08913); experiment: Radioligand binding, adrenergic α2A ([3H]MK-912); details: [3H]MK-912
T3 construct: expressed in transfected cells; host or cells: insect Sf9 cells
T3 sequence (P08913 1-465): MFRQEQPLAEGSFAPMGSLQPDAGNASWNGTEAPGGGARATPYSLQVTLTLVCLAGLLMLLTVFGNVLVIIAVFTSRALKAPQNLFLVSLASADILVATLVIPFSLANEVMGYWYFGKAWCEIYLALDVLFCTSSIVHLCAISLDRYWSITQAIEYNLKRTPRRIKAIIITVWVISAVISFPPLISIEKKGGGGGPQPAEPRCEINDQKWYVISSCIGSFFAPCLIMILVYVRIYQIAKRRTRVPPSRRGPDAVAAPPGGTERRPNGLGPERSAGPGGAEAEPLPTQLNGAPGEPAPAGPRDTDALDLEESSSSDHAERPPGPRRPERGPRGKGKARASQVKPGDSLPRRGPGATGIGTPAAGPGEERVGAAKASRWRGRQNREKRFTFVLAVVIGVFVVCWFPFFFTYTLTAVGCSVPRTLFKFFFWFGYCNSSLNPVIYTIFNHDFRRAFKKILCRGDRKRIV
How it was run: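 Sf9 membranes, 1 nM [3H]MK-912, 60 min, 25 °C, Tris-HCl pH 7.4/MgCl2/EDTA buffer. NSB: 10 μM WB-4101. Filtration, counting; % inhibition of specific binding.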

[4] = molecular target: T4, rat adrenergic α1B receptor (Rattus norvegicus, UniProt P15823); experiment: Radioligand binding, adrenergic α1B ([3H]Prazosin); parameters: species or system Wistar Rat; details: for Percentage inhibition of ligand binding, Adrenergic α1B (0.1 μM): repeat datapoints each shown
T4 construct: rat adrenergic α1B receptor obtained from Wistar Rat liver; from tissue; host or cells: Wistar rat liver
T4 sequence (P15823 1-515): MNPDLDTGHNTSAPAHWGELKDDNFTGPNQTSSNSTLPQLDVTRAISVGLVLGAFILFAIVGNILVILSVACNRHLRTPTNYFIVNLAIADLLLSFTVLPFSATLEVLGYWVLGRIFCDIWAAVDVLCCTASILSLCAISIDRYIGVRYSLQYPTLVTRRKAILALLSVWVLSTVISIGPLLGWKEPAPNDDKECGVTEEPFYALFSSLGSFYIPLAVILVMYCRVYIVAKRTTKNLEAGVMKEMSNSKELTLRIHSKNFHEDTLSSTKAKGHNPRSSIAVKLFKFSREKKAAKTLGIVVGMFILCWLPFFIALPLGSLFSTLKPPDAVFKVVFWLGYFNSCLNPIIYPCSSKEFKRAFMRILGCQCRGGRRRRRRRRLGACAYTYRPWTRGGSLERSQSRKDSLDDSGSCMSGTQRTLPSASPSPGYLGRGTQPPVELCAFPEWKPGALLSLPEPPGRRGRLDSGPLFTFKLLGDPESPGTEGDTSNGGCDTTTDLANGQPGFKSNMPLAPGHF
How it was run: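 Rat α1B receptor from Wistar rat liver was incubated with 0.25 nM [3H]prazosin for 60 min at 25 °C in 50 mM Tris-HCl, pH 7.4, 0.5 mM EDTA. Non-specific binding was defined with 10 μM phentolamine. Bound radioligand was measured by filtration and counting, reported as percent inhibition of specific binding.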

[5] = compound at 0.1 μM, repeat datapoints each shown

Structure (SMILES): Cc1ccc2c(c1)c1c(n2CC(C)c2ccc(F)cc2)CCN(C)C1 (single isomer, unassigned) [288a]
Percentage inhibition of ligand binding, Adrenergic α2B ([1]; compound at 0.1 μM): 104%
Percentage inhibition of ligand binding, Adrenergic α1D ([2]; compound at 0.1 μM, 0.1 µM): 88%

Structure (SMILES): Cc1ccc2c(c1)c1c(n2CCc2sccc2C)CCN(C)C1 [compound 308]
inhibition at 0.1 µM ([1]; compound at 0.1 μM, read-out: Percentage inhibition of ligand binding, Adrenergic α2B): 97%
inhibition at 0.1 µM ([3]; compound at 0.1 μM, read-out: Percentage inhibition of ligand binding, Adrenergic α2A): 86%
inhibition at 0.1 µM ([4]; compound at 0.1 μM, read-out: Percentage inhibition of ligand binding, Adrenergic α1B): 79%
inhibition at 0.1 µM ([2]; compound at 0.1 μM, read-out: Percentage inhibition of ligand binding, Adrenergic α1D): 56%

Structure (SMILES): Cc1ccc2c(c1)c1c(n2CC(C)c2ccc(F)cc2)CCN(C)C1 (single isomer, unassigned) [288b]
Percentage inhibition of ligand binding, Adrenergic α2A ([3]; compound at 0.1 μM): 67%
Percentage inhibition of ligand binding, Adrenergic α1B ([4]; compound at 0.1 μM): 39%
Percentage inhibition of ligand binding, Adrenergic α1D ([2]; compound at 0.1 μM, 0.1 µM): 17%

Structure (SMILES): Cc1ccc2c(c1)c1c(n2CC(C)c2ccc(C)nc2)CCN(C)C1 (single isomer, unassigned) [289b]
Percentage inhibition of ligand binding, Adrenergic α2B ([1]; compound at 0.1 μM): 54%
Percentage inhibition of ligand binding, Adrenergic α2A ([3]; compound at 0.1 μM, 0.1 µM): 53%
Percentage inhibition of ligand binding, Adrenergic α1B ([4]; compound at 0.1 μM, 0.1 µM): 12%
Percentage inhibition of ligand binding, Adrenergic α1D ([2]; compound at 0.1 μM, 0.1 µM): −2%

Structure (SMILES): CC(Cn1c2c(c3ccccc31)CN(C)CC2)c1ccc(F)cc1 (single isomer, unassigned) [272a]
Percentage inhibition of ligand binding, Adrenergic α2B ([1]; compound at 0.1 μM): −10%
Percentage inhibition of ligand binding, Adrenergic α2A ([3]; compound at 0.1 μM, 0.1 µM): 33%
Percentage inhibition of ligand binding, Adrenergic α1B ([4]; compound at 0.1 μM, 0.1 µM): 27%
Percentage inhibition of ligand binding, Adrenergic α1D ([2]; compound at 0.1 μM, 0.1 µM): 12%

The next lines start with the values.

Percentage inhibition of ligand binding, Adrenergic α2B (0.1 μM) ([1]; compound at 0.1 μM): 62%
Percentage inhibition of ligand binding, Adrenergic α2A (0.1 μM) [3, 5]: 20%
Percentage inhibition of ligand binding, Adrenergic α1B (0.1 μM) ([4]; compound at 0.1 μM): 9%
Percentage inhibition of ligand binding, Adrenergic α1D (0.1 μM) ([2]; compound at 0.1 μM): 6%
Structure (SMILES): CCC(O)(Cn1c2c(c3cc(C)ccc31)CN(C)CC2)c1ccncc1 (stereo not drawn) [35a]

Percentage inhibition of ligand binding, Adrenergic α2B (0.1 μM) ([1]; compound at 0.1 μM, 0.1 µM): 1%
Percentage inhibition of ligand binding, Adrenergic α2A (0.1 μM) ([3]; compound at 0.1 μM, repeat datapoints each shown, 0.1 µM): 3%
Percentage inhibition of ligand binding, Adrenergic α1B (0.1 μM) ([4]; compound at 0.1 μM, 0.1 µM): −2%
Percentage inhibition of ligand binding, Adrenergic α1D (0.1 μM) ([2]; compound at 0.1 μM, 0.1 µM): 13%
Structure (SMILES): CCC(O)(Cn1c2c(c3cc(C)ccc31)CN(C)CC2)c1ccc(F)cc1 (single isomer, unassigned) [34b]

Percentage inhibition of ligand binding, Adrenergic α2B (0.1 μM) ([1]; compound at 0.1 μM, 0.1 µM): −3%
Percentage inhibition of ligand binding, Adrenergic α1B (0.1 μM) ([4]; compound at 0.1 μM, 0.1 µM): −2%
Percentage inhibition of ligand binding, Adrenergic α1D (0.1 μM) ([2]; compound at 0.1 μM, 0.1 µM): 23%
Structure (SMILES): CCCCC(O)(Cn1c2c(c3cc(Cl)ccc31)CN(C)CC2)c1ccc(F)cc1 (single isomer, unassigned) [33a]

Percentage inhibition of ligand binding, Adrenergic α2A ([3]; compound at 0.1 μM, 0.1 µM): 60%
Percentage inhibition of ligand binding, Adrenergic α1B ([4]; compound at 0.1 μM, 0.1 µM): 51%
Percentage inhibition of ligand binding, Adrenergic α1D ([2]; compound at 0.1 μM, 0.1 µM): 57%
Structure (SMILES): Cc1ccc2c(c1)c1c(n2CC(C)c2ccc(C)nc2)CCN(C)C1 (single isomer, unassigned) [289a]

Percentage inhibition of ligand binding, Adrenergic α2A ([3]; compound at 0.1 μM, 0.1 µM): 68%
Percentage inhibition of ligand binding, Adrenergic α1B ([4]; compound at 0.1 μM, 0.1 µM): 30%
Percentage inhibition of ligand binding, Adrenergic α1D ([2]; compound at 0.1 μM, 0.1 µM): 36%
Structure (SMILES): CC(Cn1c2c(c3ccccc31)CN(C)CC2)c1ccc(F)cc1 (single isomer, unassigned) [272b]

inhibition at 0.1 µM ([1]; read-out: Percentage inhibition of ligand binding, Adrenergic α2B (0.1 μM), compound at 0.1 μM, repeat datapoints each shown): 38%
inhibition at 0.1 µM ([3]; read-out: Percentage inhibition of ligand binding, Adrenergic α2A (0.1 μM), compound at 0.1 μM, repeat datapoints each shown): 28%
inhibition at 0.1 µM ([4]; read-out: Percentage inhibition of ligand binding, Adrenergic α1B (0.1 μM), compound at 0.1 μM, repeat datapoints each shown): 30%
inhibition at 0.1 µM ([2]; read-out: Percentage inhibition of ligand binding, Adrenergic α1D (0.1 μM), compound at 0.1 μM, repeat datapoints each shown): 2%
Structure (SMILES): CCC(O)(Cn1c2c(c3cc(C)ccc31)CN(C)CC2)c1ccc(F)cc1 (stereo not drawn) [compound 34]

Percentage inhibition of ligand binding, Adrenergic α2B (0.1 μM) ([1]; compound at 0.1 μM, 0.1 µM): 2%
Percentage inhibition of ligand binding, Adrenergic α2A (0.1 μM) [3, 5]: −7%
Percentage inhibition of ligand binding, Adrenergic α1B (0.1 μM) ([4]; compound at 0.1 μM, 0.1 µM): 0%
Percentage inhibition of ligand binding, Adrenergic α1D (0.1 μM) ([2]; compound at 0.1 μM, 0.1 µM): 14%
Structure (SMILES): CCCCC(O)(Cn1c2c(c3cc(Cl)ccc31)CN(C)CC2)c1ccc(F)cc1 (single isomer, unassigned) [33b]
